pIC50: −log10 of the molar value.

This experiment deals with T1, His-tagged full-length RSK2 (RPS6KA3) (Homo sapiens, UniProt P51812).
T1 construct: His-tagged full-length RSK2 (RPS6KA3, Invitrogen PV3323); His; purchased Invitrogen PV3323
T1 sequence (P51812 whole entry): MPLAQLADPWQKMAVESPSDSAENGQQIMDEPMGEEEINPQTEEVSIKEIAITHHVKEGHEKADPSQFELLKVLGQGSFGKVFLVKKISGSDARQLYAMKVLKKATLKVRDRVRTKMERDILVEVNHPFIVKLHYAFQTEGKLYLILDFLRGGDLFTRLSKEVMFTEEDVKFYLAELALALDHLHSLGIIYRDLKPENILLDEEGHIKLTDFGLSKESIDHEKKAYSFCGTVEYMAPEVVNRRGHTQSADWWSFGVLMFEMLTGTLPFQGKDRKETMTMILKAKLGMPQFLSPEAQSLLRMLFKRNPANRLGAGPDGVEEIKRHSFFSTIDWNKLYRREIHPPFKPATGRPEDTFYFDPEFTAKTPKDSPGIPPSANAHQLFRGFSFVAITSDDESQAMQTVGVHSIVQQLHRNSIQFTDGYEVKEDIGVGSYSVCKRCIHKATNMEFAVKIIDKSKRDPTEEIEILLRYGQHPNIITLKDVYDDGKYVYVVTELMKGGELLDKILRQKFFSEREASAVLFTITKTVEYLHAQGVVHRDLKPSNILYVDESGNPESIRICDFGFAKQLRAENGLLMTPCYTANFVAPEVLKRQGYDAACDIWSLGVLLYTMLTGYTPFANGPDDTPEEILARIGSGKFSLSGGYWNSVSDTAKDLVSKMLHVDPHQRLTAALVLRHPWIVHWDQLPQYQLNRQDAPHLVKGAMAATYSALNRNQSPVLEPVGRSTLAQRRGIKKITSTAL
Description: RSK2 Omnia Assay for compound IC50 determination. The note with it: ATP 15 μM, n=2, read-out: Mean RSK2 Biochem IC50. It counts as biochemical. In short, it runs like this:
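Continuous fluorescence assay (ex 360/em 485 nm) of SOX-peptide (Omnia ST Peptide 6, 5 μM) phosphorylation with ATP 15 μM (Km 16.3 μM). Enzyme was […], in pH 7.5 HEPES/MgCl2 buffer with 1% DMSO. IC50 came from 11-point threefold dilutions ([…]) by four-parameter fit of initial slopes, in duplicate; Ki by Cheng-Prusoff assuming competitive inhibition.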
Regarding `C[C@@H]1C(=O)N(c2cccc(C#N)c2)c2cnc(Nc3ccc4[nH]c(=O)oc4c3)nc2N1C1CCC(F)(F)CC1` [compound 266, 3-[(7R)-8-(4,4-difluorocyclohexyl)-7-methyl-6-oxo-2-[(2-oxo-2,3-dihydro-1,3-benzoxazol-6-yl)amino]-7,8-dihydropteridin-5(6H)-yl]benzonitrile], the negative-log IC50 (pIC50) is no less than 7.00.

Turning to `C[C@@H]1C(=O)N(c2cccc(C#N)c2)c2cnc(Nc3ccc4[nH]c(=O)sc4c3)nc2N1C1CCC(F)(F)CC1` [compound 267, 3-[(7R)-8-(4,4-difluorocyclohexyl)-7-methyl-6-oxo-2-[(2-oxo-2,3-dihydro-1,3-benzothiazol-6-yl)amino]-7,8-dihydropteridin-5(6H)-yl]benzonitrile], the pIC50 was no less than 7.00. As for `C[C@@H]1C(=O)N(c2cccc(C#N)c2)c2cnc(Nc3cc4cn[nH]c4cn3)nc2N1C1CCC(F)(F)CC1` [compound 268, 3-[(7R)-8-(4,4-difluorocyclohexyl)-7-methyl-6-oxo-2-(1H-pyrazolo[3,4-c]pyridin-5-ylamino)-7,8-dihydropteridin-5(6H)-yl]benzonitrile], the pIC50 was 6.00 to 7.00.

As for `C[C@@H]1C(=O)N(c2cccc(C#N)c2)c2cnc(Nc3ccc(C(=O)O)cc3)nc2N1C1CCC(F)(F)CC1` [compound 269, 4-{[(7R)-5-(3-cyanophenyl)-8-(4,4-difluorocyclohexyl)-7-methyl-6-oxo-5,6,7,8-tetrahydropteridin-2-yl]amino}benzoic acid], the pIC50 was no less than 7.00. Then `C[C@@H]1C(=O)N(c2cccc(C#N)c2)c2cnc(Nc3cnc4[nH]ncc4c3)nc2N1C1CCC(F)(F)CC1` [compound 270, 3-[(7R)-8-(4,4-difluorocyclohexyl)-7-methyl-6-oxo-2-(1H-pyrazolo[3,4-b]pyridin-5-ylamino)-7,8-dihydropteridin-5(6H)-yl]benzonitrile], with no less than 7.00; and `C[C@@H]1C(=O)N(c2cccc(C#N)c2)c2cnc(Nc3ccc(C(=O)O)c(F)c3)nc2N1C1CCC(F)(F)CC1` [compound 271, 4-{[(7R)-5-(3-cyanophenyl)-8-(4,4-difluorocyclohexyl)-7-methyl-6-oxo-5,6,7,8-tetrahydropteridin-2-yl]amino}-2-fluorobenzoic acid], with no less than 7.00; and `C[C@@H]1C(=O)N(c2cccc(C#N)c2)c2cnc(Nc3ccc(C(N)=O)c(F)c3)nc2N1C1CCC(F)(F)CC1` [compound 272, 4-{[(7R)-5-(3-cyanophenyl)-8-(4,4-difluorocyclohexyl)-7-methyl-6-oxo-5,6,7,8-tetrahydropteridin-2-yl]amino}-2-fluorobenzamide], with no less than 7.00. In the case of `C[C@@H]1C(=O)N(c2cccc(C#N)c2)c2cnc(Nc3ccc(S(N)(=O)=O)cc3)nc2N1C1CCC(F)(F)CC1` [compound 273, 4-{[(7R)-5-(3-cyanophenyl)-8-(4,4-difluorocyclohexyl)-7-methyl-6-oxo-5,6,7,8-tetrahydropteridin-2-yl]amino}benzenesulfonamide] it was no less than 7.00. In the case of `C[C@@H]1C(=O)N(c2cccc(C#N)c2)c2cnc(Nc3ccc(C#N)cc3)nc2N1C1CCC(F)(F)CC1` [compound 274, 3-[(7R)-2-[(4-cyanophenyl)amino]-8-(4,4-difluorocyclohexyl)-7-methyl-6-oxo-7,8-dihydropteridin-5(6H)-yl]benzonitrile] it was 6.00 to 7.00; in that of `C[C@@H]1C(=O)N(c2cccc(C#N)c2)c2cnc(Nc3ccc(N)c(C(F)(F)F)c3)nc2N1C1CCC(F)(F)CC1` [compound 275], less than 6.00. As to `C[C@@H]1C(=O)N(c2cccc(C#N)c2)c2cnc(Nc3cc(F)c(O)c(F)c3)nc2N1C1CCC(F)(F)CC1` [compound 276, 3-[(7R)-8-(4,4-difluorocyclohexyl)-2-[(3,5-difluoro-4-hydroxyphenyl)amino]-7-methyl-6-oxo-7,8-dihydropteridin-5(6H)-yl]benzonitrile], the pIC50 is no less than 7.00. Then `C[C@@H]1C(=O)N(c2cccc(C#N)c2)c2cnc(Nc3cc(F)c4[nH]c(=O)oc4c3)nc2N1C1CCC(F)(F)CC1` [compound 277, 3-[(7R)-8-(4,4-difluorocyclohexyl)-2-[(4-fluoro-2-oxo-2,3-dihydro-1,3-benzoxazol-6-yl)amino]-7-methyl-6-oxo-7,8-dihydropteridin-5(6H)-yl]benzonitrile], with no less than 7.00; and `CC(C)Oc1ccc(N2C(=O)[C@@H](C)N(C3CCC(F)(F)CC3)c3nc(Nc4cc(F)c5[nH]c(=O)oc5c4)ncc32)cc1C#N` [compound 278, 5-[(7R)-8-(4,4-difluorocyclohexyl)-2-[(4-fluoro-2-oxo-2,3-dihydro-1,3-benzoxazol-6-yl)amino]-7-methyl-6-oxo-7,8-dihydropteridin-5(6H)-yl]-2-(propan-2-yloxy)benzonitrile], with no less than 7.00. Then `COc1ccc(N2C(=O)[C@@H](C)N(C3CCC(F)(F)CC3)c3nc(Nc4cnc5[nH]ncc5c4)ncc32)cc1C#N` [compound 279, 5-[(7R)-8-(4,4-difluorocyclohexyl)-7-methyl-6-oxo-2-(1H-pyrazolo[3,4-b]pyridin-5-ylamino)-7,8-dihydropteridin-5(6H)-yl]-2-methoxybenzonitrile], with no less than 7.00. In the case of `CCOc1ccc(N2C(=O)[C@@H](C)N(C3CCC(F)(F)CC3)c3nc(Nc4cc(F)c5[nH]c(=O)oc5c4)ncc32)cc1C#N` [compound 280, 5-[(7R)-8-(4,4-difluorocyclohexyl)-2-[(4-fluoro-2-oxo-2,3-dihydro-1,3-benzoxazol-6-yl)amino]-7-methyl-6-oxo-7,8-dihydropteridin-5(6H)-yl]-2-ethoxybenzonitrile], the negative logarithm of the IC50 (pIC50) is no less than 7.00. In the case of `COc1ccc(N2C(=O)[C@@H](C)N(C3CCC(F)(F)CC3)c3nc(Nc4cc(F)c5[nH]c(=O)oc5c4)ncc32)cc1C#N` [compound 281, 5-[(7R)-8-(4,4-difluorocyclohexyl)-2-[(4-fluoro-2-oxo-2,3-dihydro-1,3-benzoxazol-6-yl)amino]-7-methyl-6-oxo-7,8-dihydropteridin-5(6H)-yl]-2-methoxybenzonitrile] it was no less than 7.00.

As to `CCOc1ccc(N2C(=O)[C@@H](C)N(C3CCC(F)(F)CC3)c3nc(Nc4cnc5[nH]ncc5c4)ncc32)cc1C#N` [compound 282, 5-[(7R)-8-(4,4-difluorocyclohexyl)-7-methyl-6-oxo-2-(1H-pyrazolo[3,4-b]pyridin-5-ylamino)-7,8-dihydropteridin-5(6H)-yl]-2-ethoxybenzonitrile], the pIC50 is no less than 7.00.

Turning to `COc1ccc(N2C(=O)[C@@H](C)N(C3CCC(F)(F)CC3)c3nc(Nc4ccc5[nH]c(=O)oc5c4)ncc32)cc1C#N` [compound 283, 5-[(7R)-8-(4,4-difluorocyclohexyl)-7-methyl-6-oxo-2-[(2-oxo-2,3-dihydro-1,3-benzoxazol-6-yl)amino]-7,8-dihydropteridin-5(6H)-yl]-2-methoxybenzonitrile], the negative-log IC50 (pIC50) is 6.00 to 7.00. Then `CCOc1ccc(N2C(=O)[C@@H](C)N(C3CCC(F)(F)CC3)c3nc(Nc4ccc5[nH]c(=O)oc5c4)ncc32)cc1C#N` [compound 284, 5-[(7R)-8-(4,4-difluorocyclohexyl)-7-methyl-6-oxo-2-[(2-oxo-2,3-dihydro-1,3-benzoxazol-6-yl)amino]-7,8-dihydropteridin-5(6H)-yl]-2-ethoxybenzonitrile], with 6.00 to 7.00.

In the case of `CC(C)Oc1ccc(N2C(=O)[C@@H](C)N(C3CCC(F)(F)CC3)c3nc(Nc4ccc5[nH]c(=O)oc5c4)ncc32)cc1C#N` [compound 285, 5-[(7R)-8-(4,4-difluorocyclohexyl)-7-methyl-6-oxo-2-[(2-oxo-2,3-dihydro-1,3-benzoxazol-6-yl)amino]-7,8-dihydropteridin-5(6H)-yl]-2-(propan-2-yloxy)benzonitrile], the pIC50 is no less than 7.00. Then `CC(C)Oc1ccc(N2C(=O)[C@@H](C)N(C3CCC(F)(F)CC3)c3nc(Nc4cnc5[nH]ncc5c4)ncc32)cc1C#N` [compound 286, 5-[(7R)-8-(4,4-difluorocyclohexyl)-7-methyl-6-oxo-2-(1H-pyrazolo[3,4-b]pyridin-5-ylamino)-7,8-dihydropteridin-5(6H)-yl]-2-(propan-2-yloxy)benzonitrile], with 6.00 to 7.00. For the compound `CC[C@@H]1C(=O)N(c2cccc(C#N)c2)c2cnc(Nc3cc(F)c4[nH]ncc4c3)nc2N1C1CCCCC1` [compound 287, 3-[(7R)-8-cyclohexyl-7-ethyl-2-[(7-fluoro-1H-indazol-5-yl)amino]-6-oxo-7,8-dihydropteridin-5(6H)-yl]benzonitrile], the pIC50 is no less than 7.00. Then `CC[C@@H]1C(=O)N(c2cccnc2)c2cnc(Nc3cc(F)c4[nH]ncc4c3)nc2N1C1CCCCC1` [compound 288, (7R)-8-cyclohexyl-7-ethyl-2-[(7-fluoro-1H-indazol-5-yl)amino]-5-(pyridin-3-yl)-7,8-dihydropteridin-6(5H)-one], with no less than 7.00; and `CC[C@@H]1C(=O)N(c2ccc(OC)c(OC)c2)c2cnc(Nc3cc(F)c4[nH]ncc4c3)nc2N1C1CCCCC1` [compound 289, (7R)-8-cyclohexyl-5-(3,4-dimethoxyphenyl)-7-ethyl-2-[(7-fluoro-1H-indazol-5-yl)amino]-7,8-dihydropteridin-6(5H)-one], with no less than 7.00. Regarding `CC[C@@H]1C(=O)N(c2cccc(F)c2)c2cnc(Nc3cc(F)c4[nH]ncc4c3)nc2N1C1CCCCC1` [compound 290, (7R)-8-cyclohexyl-7-ethyl-2-[(7-fluoro-1H-indazol-5-yl)amino]-5-(3-fluorophenyl)-7,8-dihydropteridin-6(5H)-one], the pIC50 is no less than 7.00. Then `CC[C@@H]1C(=O)N(c2cccc(C(F)(F)F)c2)c2cnc(Nc3cc(F)c4[nH]ncc4c3)nc2N1C1CCCCC1` [compound 291, (7R)-8-cyclohexyl-7-ethyl-2-[(7-fluoro-1H-indazol-5-yl)amino]-5-[3-(trifluoromethyl)phenyl]-7,8-dihydropteridin-6(5H)-one], with no less than 7.00.

These data come from patent US9351974B2, “Substituted pteridinones for the treatment of cancer” (OSI Pharmaceuticals, LLC, priority 2011, dated 2016).
